Measurements: publication PMC7262789 (Journal of medicinal chemistry, 2019)
“Also recorded” adds a separate entry of the source.

How the values were obtained:
PPARα = target: T1, PPARα (Homo sapiens, UniProt Q07869); assay: Gal4 hybrid reporter gene assay in HEK293T cells; format: cell-based; settings: at 10 μM; reference GW7647 1 μM
T1 sequence (Q07869 239-466 limits assumed): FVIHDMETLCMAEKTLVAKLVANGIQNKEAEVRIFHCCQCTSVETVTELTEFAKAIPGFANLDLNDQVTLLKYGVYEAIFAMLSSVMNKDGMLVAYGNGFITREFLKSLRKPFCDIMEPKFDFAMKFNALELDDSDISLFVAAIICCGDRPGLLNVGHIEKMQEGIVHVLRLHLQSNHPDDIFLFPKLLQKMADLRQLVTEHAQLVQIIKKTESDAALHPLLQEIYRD

PPARβ/δ = target: T2, PPARβ/δ (Homo sapiens, UniProt Q03181); assay: Gal4 hybrid reporter gene assay in HEK293T cells; format: cell-based; settings: at 10 μM; reference L165,041 1 μM
T2 sequence (Q03181 211-439 limits assumed): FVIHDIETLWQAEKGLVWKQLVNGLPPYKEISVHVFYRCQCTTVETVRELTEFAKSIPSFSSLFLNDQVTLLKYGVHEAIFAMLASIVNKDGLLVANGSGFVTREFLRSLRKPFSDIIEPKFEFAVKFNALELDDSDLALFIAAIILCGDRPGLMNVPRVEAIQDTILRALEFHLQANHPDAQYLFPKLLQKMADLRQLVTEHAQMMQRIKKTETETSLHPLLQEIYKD

PPARγ = target: T3, PPARγ (Homo sapiens, UniProt P37231); assay: Gal4 hybrid reporter gene assay in HEK293T cells; format: cell-based; settings: at 10 μM; reference pioglitazone 1 μM
T3 sequence (P37231 238-503 limits assumed): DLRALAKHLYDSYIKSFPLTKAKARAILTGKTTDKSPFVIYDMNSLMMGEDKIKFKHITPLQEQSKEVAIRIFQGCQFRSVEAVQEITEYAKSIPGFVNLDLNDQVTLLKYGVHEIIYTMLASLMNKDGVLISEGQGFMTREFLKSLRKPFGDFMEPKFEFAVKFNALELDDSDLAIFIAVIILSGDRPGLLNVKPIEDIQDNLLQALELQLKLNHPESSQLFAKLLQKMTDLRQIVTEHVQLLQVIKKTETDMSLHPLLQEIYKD

LXRα = target: T4, LXRα (Homo sapiens, UniProt Q13133); assay: Gal4 hybrid reporter gene assay in HEK293T cells; format: cell-based; settings: at 10 μM; reference T0901317 1 μM
T4 sequence (Q13133 209-447 limits assumed): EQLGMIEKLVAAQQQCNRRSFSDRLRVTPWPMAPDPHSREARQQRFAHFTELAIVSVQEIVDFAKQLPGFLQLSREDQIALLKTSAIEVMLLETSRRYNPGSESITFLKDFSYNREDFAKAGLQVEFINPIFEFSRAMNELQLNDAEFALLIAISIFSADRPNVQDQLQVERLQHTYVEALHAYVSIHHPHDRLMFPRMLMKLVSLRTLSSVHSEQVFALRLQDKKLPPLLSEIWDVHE

LXRβ = target: T5, LXRβ (Homo sapiens, UniProt P55055); assay: Gal4 hybrid reporter gene assay in HEK293T cells; format: cell-based; settings: at 10 μM; reference T0901317 1 μM
T5 sequence (P55055 222-460 limits assumed): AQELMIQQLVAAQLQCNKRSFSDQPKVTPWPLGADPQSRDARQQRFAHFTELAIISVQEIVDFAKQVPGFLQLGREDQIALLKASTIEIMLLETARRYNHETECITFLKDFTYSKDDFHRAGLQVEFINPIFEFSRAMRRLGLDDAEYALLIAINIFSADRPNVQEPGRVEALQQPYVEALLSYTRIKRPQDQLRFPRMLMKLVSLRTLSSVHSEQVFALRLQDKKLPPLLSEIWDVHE

[1] = target: T6, recombinant sEH-P domain (N-terminal domain of sEH) (Homo sapiens, UniProt P34913); assay: FDP-based phosphatase assay, isolated sEH-P domain; format: biochemical; settings: FDP substrate, recombinant sEH-P domain
T6 sequence (P34913 1-222): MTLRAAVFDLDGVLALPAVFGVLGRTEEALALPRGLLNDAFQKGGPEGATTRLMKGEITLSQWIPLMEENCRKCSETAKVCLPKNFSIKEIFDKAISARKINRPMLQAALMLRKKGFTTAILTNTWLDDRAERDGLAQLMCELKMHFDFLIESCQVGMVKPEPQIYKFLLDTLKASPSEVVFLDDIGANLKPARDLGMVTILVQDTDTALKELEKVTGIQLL

[2] = target: T7, human fl sEH (sEH-H activity) (Homo sapiens, UniProt P34913); assay: PHOME-based hydrolase assay, full-length human sEH; format: biochemical
T7 sequence (P34913 1-555): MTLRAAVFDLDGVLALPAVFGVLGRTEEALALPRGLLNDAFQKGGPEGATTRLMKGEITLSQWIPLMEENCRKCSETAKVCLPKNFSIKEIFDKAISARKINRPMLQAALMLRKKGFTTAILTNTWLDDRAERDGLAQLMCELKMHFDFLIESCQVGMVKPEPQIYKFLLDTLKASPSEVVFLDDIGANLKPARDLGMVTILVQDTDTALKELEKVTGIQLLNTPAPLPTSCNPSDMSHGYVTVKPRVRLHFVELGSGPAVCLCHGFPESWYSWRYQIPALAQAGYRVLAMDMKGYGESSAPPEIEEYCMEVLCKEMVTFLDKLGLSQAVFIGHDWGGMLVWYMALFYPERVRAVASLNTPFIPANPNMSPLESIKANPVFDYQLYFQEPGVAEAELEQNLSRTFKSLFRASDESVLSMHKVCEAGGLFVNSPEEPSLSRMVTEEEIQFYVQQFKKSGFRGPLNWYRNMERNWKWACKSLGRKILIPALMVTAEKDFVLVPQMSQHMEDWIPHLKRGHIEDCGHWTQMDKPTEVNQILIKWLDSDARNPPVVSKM

[3] = target: T8, N-terminal domain of sEH (sEH-P) (Homo sapiens, UniProt P34913); assay: Differential scanning fluorimetry; format: binding; settings: inhibitor 50 μM
T8 sequence (P34913 2-224): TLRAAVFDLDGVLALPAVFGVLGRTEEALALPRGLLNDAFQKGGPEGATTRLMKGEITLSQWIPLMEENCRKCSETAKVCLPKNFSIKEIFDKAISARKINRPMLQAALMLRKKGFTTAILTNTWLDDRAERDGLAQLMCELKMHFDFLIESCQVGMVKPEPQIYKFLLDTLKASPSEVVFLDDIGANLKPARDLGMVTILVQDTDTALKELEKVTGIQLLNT

[4] = target: T9, C-terminal domain of sEH (sEH-H) (Homo sapiens, UniProt P34913); assay: Differential scanning fluorimetry; format: binding; settings: inhibitor 50 μM
T9 sequence (P34913 235-555 limits assumed): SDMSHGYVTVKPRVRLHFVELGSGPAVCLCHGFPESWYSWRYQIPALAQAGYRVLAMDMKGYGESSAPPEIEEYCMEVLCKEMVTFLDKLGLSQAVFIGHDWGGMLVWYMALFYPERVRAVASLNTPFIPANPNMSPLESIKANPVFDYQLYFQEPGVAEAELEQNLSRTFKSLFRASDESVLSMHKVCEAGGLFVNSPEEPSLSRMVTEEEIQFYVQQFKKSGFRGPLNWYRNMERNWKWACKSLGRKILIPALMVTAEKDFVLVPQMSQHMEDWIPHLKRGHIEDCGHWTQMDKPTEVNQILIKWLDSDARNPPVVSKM

FXR = target: T10, FXR (Homo sapiens, UniProt Q96RI1); assay: Gal4 hybrid reporter gene assay in HEK293T cells; format: cell-based; settings: at 10 μM; reference GW4064 1 μM
T10 sequence (Q96RI1 262-486 limits assumed): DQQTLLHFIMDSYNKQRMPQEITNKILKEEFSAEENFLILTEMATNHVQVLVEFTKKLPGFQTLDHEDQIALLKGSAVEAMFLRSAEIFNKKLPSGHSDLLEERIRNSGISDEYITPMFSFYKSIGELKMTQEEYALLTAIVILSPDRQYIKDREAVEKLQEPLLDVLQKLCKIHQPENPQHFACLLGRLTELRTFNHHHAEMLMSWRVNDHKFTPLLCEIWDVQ

[5] = Pharmacokinetic study in male Sprague-Dawley rats; format: in vivo, rat; settings: 30 mg/kg p.o., male SD rats
sEH-H = assay: Epoxy fatty acid/diol ratios in rat plasma by LC-MS/MS; format: in vivo; settings: rat plasma 8 h after 30 mg/kg p.o., vs vehicle
full-length human sEH = target: T11, full-length human sEH (Homo sapiens, UniProt P34913); assay: DiFMUP-based phosphatase assay, full-length sEH; settings: DiFMUP substrate
T11 sequence (P34913 1-555): T7 sequence (P34913 1-555)

[6] = target: T12, isolated N-terminal domain of sEH (sEH-P) (Homo sapiens, UniProt P34913); assay: DiFMUP-based phosphatase assay, isolated N-terminal domain; settings: DiFMUP substrate
T12 sequence (P34913 1-222): T6 sequence (P34913 1-222)

SMILES	PPARα transactivation of the reference agonist (PPARα)	PPARβ/δ transactivation of the reference agonist (PPARβ/δ)	PPARγ transactivation of the reference agonist (PPARγ)	LXRα transactivation of the reference agonist (LXRα)	LXRβ transactivation of the reference agonist (LXRβ)	inhibitory potency toward sEH-P (SAR statement in words) [1]	IC50 [2] [µM]	stabilization of the N-terminal domain in DSF [3]	stabilization of the C-terminal domain in DSF [4]	FXR transactivation of the reference agonist (FXR)	maximum plasma concentration [5] [µg/mL]	ratio of main epoxy fatty acids to their respective diols (sEH-H)	mode of inhibition (full-length human sEH)	mode of inhibition [6]
O=C(O)CCc1nc(-c2ccccc2)c(-c2ccccc2)o1 [compound 5, oxaprozin, reference compound]	inactive at 10 μM	inactive at 10 μM	inactive at 10 μM	inactive at 10 μM	inactive at 10 μM	–	–	–	–	–	–	–	–	–
O=C(O)CCCc1nc(-c2ccc(Cl)c(Cl)c2)c(-c2ccccc2)o1 [22b, 4-(4-(3,4-Dichlorophenyl)-5-phenyloxazol-2-yl)butanoic Acid]	inactive at 10 μM	inactive at 10 μM	–	inactive at 10 μM	inactive at 10 μM	further improved the inhibitory activity	~9	stabilized; also recorded: able to stabilize	did not stabilize	inactive at 10 μM	48	did not influence	competitive inhibitor	competitive inhibitor
